Reference: ChEMBL document CHEMBL1134008, “Cis- and trans-N-benzyl-octahydrobenzo[g]quinolines. Adrenergic and dopaminergic activity studies” (Bioorg Med Chem Lett, 2001)

What was measured:
Assay type in all cases: cell membranes, Membrane; call rule not given here
D(1A) dopamine receptor [1] = biological target: T1, D(1A) dopamine receptor (Rattus norvegicus, UniProt P18901); assay: Inhibition of binding of [3H]SCH-23390 to Dopamine receptor D1 in rat striatal membranes at 5 uM concentration; NA is not active
D(2) dopamine receptor [2] = biological target: T2, D(2) dopamine receptor (Rattus norvegicus, UniProt P61169); assay: Inhibition of binding of [3H]spiroperidol to Dopamine receptor D2 in rat striatal membranes at 5 uM concentration; NA is not active
[3] = biological target: T3, Adrenergic receptor alpha-2 (Rattus norvegicus, UniProt P22086+P19328+P22909); assay: Inhibition of binding of [3H]rauwolscine to Alpha-2 adrenergic receptor in rat cortical membranes
T3 sequence (P22086 whole entry): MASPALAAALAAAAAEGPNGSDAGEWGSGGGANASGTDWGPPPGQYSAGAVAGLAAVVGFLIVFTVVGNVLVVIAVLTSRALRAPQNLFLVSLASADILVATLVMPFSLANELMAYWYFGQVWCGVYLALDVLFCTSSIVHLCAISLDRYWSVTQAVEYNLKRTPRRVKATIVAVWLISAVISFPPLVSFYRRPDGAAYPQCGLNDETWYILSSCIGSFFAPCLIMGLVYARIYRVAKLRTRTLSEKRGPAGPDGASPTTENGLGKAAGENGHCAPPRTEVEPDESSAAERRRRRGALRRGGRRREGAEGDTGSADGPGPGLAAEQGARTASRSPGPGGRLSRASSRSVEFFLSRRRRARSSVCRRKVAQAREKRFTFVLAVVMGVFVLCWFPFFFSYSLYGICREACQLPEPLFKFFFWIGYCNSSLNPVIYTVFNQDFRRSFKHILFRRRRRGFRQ
T3 sequence (P19328 whole entry): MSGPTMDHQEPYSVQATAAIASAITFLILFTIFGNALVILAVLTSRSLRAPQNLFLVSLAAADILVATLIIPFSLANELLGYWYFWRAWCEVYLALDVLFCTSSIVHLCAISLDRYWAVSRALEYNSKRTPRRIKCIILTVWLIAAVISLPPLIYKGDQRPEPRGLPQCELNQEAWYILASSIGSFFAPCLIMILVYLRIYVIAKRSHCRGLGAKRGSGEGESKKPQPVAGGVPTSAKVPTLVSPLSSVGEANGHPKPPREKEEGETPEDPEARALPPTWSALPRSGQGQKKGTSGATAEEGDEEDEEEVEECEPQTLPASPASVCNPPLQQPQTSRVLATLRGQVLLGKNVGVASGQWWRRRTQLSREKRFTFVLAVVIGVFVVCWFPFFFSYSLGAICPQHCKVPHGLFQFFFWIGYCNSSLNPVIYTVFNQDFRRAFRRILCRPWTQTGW
T3 sequence (P22909 whole entry): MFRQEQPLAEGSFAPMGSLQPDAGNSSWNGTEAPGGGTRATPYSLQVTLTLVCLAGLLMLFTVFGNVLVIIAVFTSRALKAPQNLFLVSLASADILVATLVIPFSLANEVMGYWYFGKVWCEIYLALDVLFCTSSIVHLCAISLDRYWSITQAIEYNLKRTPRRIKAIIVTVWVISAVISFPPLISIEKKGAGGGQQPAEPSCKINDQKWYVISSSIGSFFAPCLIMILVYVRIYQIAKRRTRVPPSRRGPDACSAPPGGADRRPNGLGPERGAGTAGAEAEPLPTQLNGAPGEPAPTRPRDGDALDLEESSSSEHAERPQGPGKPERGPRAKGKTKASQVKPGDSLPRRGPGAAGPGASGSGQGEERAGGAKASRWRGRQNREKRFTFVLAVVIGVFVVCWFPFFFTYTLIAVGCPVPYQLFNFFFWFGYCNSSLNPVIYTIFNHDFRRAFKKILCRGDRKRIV

D(2) dopamine receptor [4] = biological target: T2, D(2) dopamine receptor; assay: Inhibition of binding of [3H]spiroperidol to Dopamine receptor D2 in rat striatal membranes
[5] = biological target: T4, Adrenergic receptor alpha-1 (Rattus norvegicus, UniProt P15823+P23944+P43140); assay: Inhibition of binding of [3H]prazosin to Alpha-1 adrenergic receptor in rat cortical membranes
T4 sequence (P15823 whole entry): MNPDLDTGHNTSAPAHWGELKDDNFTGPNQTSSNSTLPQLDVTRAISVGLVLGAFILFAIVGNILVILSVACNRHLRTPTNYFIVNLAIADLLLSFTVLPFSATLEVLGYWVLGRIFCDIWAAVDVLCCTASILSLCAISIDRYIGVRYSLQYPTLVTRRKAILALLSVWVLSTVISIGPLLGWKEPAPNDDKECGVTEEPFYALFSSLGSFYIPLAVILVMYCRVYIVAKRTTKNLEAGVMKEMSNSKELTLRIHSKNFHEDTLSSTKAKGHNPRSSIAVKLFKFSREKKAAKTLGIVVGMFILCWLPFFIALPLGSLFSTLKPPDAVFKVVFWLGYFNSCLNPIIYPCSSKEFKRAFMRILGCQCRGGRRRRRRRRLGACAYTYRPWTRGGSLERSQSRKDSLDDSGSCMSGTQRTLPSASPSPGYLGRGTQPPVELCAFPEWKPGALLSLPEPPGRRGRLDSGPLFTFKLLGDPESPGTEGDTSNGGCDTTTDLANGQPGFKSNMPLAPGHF
T4 sequence (P23944 whole entry): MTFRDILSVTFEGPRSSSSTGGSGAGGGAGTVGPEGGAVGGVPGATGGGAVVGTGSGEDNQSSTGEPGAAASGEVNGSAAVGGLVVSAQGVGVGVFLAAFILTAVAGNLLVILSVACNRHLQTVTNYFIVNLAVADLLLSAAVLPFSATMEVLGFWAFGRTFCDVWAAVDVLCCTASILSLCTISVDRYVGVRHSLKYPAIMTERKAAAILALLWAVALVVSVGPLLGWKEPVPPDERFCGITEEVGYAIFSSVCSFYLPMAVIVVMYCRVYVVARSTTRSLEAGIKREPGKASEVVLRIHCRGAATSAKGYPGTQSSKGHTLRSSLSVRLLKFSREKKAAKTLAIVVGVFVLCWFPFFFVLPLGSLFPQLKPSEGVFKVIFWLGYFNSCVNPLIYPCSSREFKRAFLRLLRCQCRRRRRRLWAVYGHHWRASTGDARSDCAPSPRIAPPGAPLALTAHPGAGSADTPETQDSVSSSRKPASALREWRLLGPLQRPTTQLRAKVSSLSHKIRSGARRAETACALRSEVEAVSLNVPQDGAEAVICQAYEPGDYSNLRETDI
T4 sequence (P43140 whole entry): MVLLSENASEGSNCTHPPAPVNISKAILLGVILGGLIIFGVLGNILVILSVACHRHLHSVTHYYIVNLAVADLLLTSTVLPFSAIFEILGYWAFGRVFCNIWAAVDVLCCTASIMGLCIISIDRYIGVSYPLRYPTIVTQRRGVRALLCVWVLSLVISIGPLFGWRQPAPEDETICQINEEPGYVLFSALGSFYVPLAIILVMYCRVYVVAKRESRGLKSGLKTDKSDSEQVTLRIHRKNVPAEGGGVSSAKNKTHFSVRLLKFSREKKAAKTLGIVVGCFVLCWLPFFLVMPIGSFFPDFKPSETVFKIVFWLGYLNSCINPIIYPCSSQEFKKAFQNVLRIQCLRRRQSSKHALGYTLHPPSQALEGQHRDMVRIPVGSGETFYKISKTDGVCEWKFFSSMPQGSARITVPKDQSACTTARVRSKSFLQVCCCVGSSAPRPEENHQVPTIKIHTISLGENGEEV

D(1A) dopamine receptor [6] = biological target: T1, D(1A) dopamine receptor; assay: Inhibition of binding of [3H]SCH-23390 to Dopamine receptor D1 in rat striatal membranes

T1 sequence (P18901 whole entry): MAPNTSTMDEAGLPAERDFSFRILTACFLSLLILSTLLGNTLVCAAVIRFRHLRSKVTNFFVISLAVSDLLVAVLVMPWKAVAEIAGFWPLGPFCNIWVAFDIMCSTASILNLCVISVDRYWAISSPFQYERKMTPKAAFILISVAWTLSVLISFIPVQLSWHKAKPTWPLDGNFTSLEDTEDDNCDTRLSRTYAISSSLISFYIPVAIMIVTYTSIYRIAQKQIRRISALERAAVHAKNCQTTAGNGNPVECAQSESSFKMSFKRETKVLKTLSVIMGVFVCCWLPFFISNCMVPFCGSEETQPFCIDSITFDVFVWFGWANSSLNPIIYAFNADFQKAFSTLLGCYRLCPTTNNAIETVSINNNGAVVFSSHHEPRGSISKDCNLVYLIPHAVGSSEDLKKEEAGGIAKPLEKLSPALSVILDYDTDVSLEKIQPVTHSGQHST
T2 sequence (P61169 whole entry): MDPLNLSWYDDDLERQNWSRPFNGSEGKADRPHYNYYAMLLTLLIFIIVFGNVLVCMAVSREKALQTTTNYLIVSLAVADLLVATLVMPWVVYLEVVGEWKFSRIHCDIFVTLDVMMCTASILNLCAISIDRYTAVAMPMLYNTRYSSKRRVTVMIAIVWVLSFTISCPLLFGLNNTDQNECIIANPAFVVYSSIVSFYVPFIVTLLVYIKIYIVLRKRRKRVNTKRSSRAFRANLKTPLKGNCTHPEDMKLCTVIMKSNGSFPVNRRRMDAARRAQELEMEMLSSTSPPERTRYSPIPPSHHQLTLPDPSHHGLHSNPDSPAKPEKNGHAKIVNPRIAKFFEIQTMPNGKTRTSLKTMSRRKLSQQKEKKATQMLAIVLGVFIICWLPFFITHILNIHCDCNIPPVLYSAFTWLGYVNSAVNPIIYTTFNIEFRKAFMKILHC

Compound	IC50 (D(1A) dopamine receptor [1])	IC50 (D(2) dopamine receptor [2])	IC50 [3]	IC50 (D(2) dopamine receptor [4])	IC50 [5]	IC50 (D(1A) dopamine receptor [6])
c1ccc2c(c1)CC1CCCNC1C2 (stereo unspecified)	Not Active	Not Active	130 µM	–	–	–
NC1CCc2c(ccc(O)c2O)C1 (racemic)	–	–	–	0.7 µM	–	–
COc1cccc2c1CC1CCCN(Cc3ccccc3)C1C2 (stereo in doubt; cis)	Not Active	Not Active	38 µM	–	667 µM	–
c1ccc(CN2CCCC3Cc4ccccc4CC32)cc1 (stereo in doubt; cis)	Not Active	–	214 µM	–	739 µM	–
COc1cccc2c1CC1CCCN(Cc3ccccc3)C1C2 (stereo in doubt; trans)	–	–	6 µM	–	588 µM	0.45 µM
c1ccc(CN2CCCC3Cc4ccccc4CC32)cc1 (stereo in doubt; trans)	–	Not Active	5.9 µM	–	218 µM	1.2 µM
COc1cccc2c1CC1CCCNC1C2 (trans isomer)	Not Active	Not Active	67.5 µM	–	–	–
